The results in this text go back to US10238111B2, “Fungicidal compositions” (Dow AgroSciences LLC, priority 2014, dated 2019).

What all share (assay type): physicochemical
Data set [1] is described as follows: Approximate (relative) solubility of active ingredients in organic solvents at ambient temperature. Particulars: 0.2 g Compound A mixed with 1.38 g cyclohexanone. The protocol:
The approximate solubility of Compound A was determined by mixing a known mass of the active ingredient with an increasing mass of each solvent at ambient temperature. […] The solubility of Compound A in the solvents used in this screening procedure was generally classified within the following concentration ranges: […]

Data set [2] is described as follows: Solubility of Compound A and prothioconazole in benzyl acetate/AMD810 blends at 10° C. (HPLC). The note with it: both actives saturated. The protocol:
A study of the Compound A and prothioconazole solubility in blends of benzyl acetate/AMD810 was conducted. To each solvent blend both actives were added until each was saturated and the resulting mixtures were then stored at 10° C. until equilibrium was obtained. Aliquots of the supernatant layer were taken from each sample, filtered (0.45 μm mesh) and analyzed by HPLC to determine the solution concentration of each active in the blends.

The nature of data set [3]: Accelerated storage stability of Compound A in liquid compositions, 2 weeks at 54° C. (HPLC). The protocol: The test compositions were prepared in a manner similar to that described in Example 1 using one or more of Compound A, prothioconazole, pyraclostrobin, benzyl acetate, and AMD 810, and a third solvent chosen from cyclohexanone, acetophenone, 2-heptanone, 2-heptanal, oleyl alcohol or 2-ethylhexanol.

In the case of `COc1ccnc(C(=O)N[C@H]2COC(=O)[C@H](Cc3ccccc3)[C@@H](OC(=O)C(C)C)[C@H](C)OC2=O)c1OCOC(=O)C(C)C` [Compound A, propanoic acid, 2-methyl-, [[4-methoxy-2-[[[(3S,7R,8R,9S)-9-methyl-8-(2-methyl-1-oxopropoxy)-2,6-dioxo-7-(phenylmethyl)-1,5-dioxonan-3-yl]amino]carbonyl]-3-pyridinyl]oxy]methyl ester], in data set [1], the “clear solution comprising Compound A” value amounted to 12.6 % w/w. For the same compound, the “Compound A Solubility at 10° C.” value is 3.3 % w/w in data set [2] (benzyl acetate to AMD810 in blend 0 wt %); 4.3 % w/w in data set [2] (benzyl acetate to AMD810 in blend 20 wt %); 6.5 % w/w in data set [2] (benzyl acetate to AMD810 in blend 40 wt %); 11.0 % w/w in data set [2] (benzyl acetate to AMD810 in blend 60 wt %); 12.0 % w/w in data set [2] (benzyl acetate to AMD810 in blend 80 wt %). Also, the “Compound A after Storage (% retention)” value in data set [3] (wt %: Compound A 3.4, AMD 810 96.0, third solvent none) was 49^ % retention; in data set [3] (wt %: Compound A 4.9, benzyl acetate 94.1, third solvent none) it was 85^ % retention; in data set [3] (wt %: Compound A 12.0, cyclohexanone 85.7), 96^ % retention.
